# Patent US11802128B2, “Azetidine and pyrrolidine PARP1 inhibitors and uses thereof” (Xinthera, Inc., priority 2021, dated 2023)
# pEC50: −log10 of the molar value.
# Tests used:
# DLD-1 BRCA2(−/−) cells = experiment: Cell growth inhibition assay (CellTiter-Glo cell viability, 7 days); assay type: cell-based; conditions: Homo sapiens, 168 h
# Text: (§1) The objective of this study is to evaluate the effect of invention compounds on cell proliferation through the cell viability assay in DLD-1 BRCA2(−/−) and parental isogenic pair and MDA-MB-436 (mutated BRCA1) cell lines. The CellTiter-Glo (CTG) based cell viability assay is designed to determine the number of viable cells in the culture because of compound effect, by quantifying ATP, which indicates the presence of metabolically active cells.
# (§2) DLD-1 BRCA2(−/−) and parental isogenic pair were cultured in RPMI 1640 supplemented with 10% fetal bovine serum (FBS), and MDA-MB-436 cells were cultured in DMEM supplemented with 10% FBS. Both are culture at 37° C. with 5% CO2. Invention compounds were distributed to the 384 well plate (Corning, 3764) using Echo acoustic liquid handler to form a 1:3 serially diluted final concentration with top dose of 10 or 30 μM. The cells were seeded into the plate in the density of 50 cells/well (DLD-1 parental), 200 cells/well (DLD-1 BRCA2−/−), or 500 cells/well (MDA-MB-436). After a short spun, the cells were cultured in a well moisturized incubator at 37° C. with 5% CO2 for 7 days without disturbance. The cell viability was measured by CellTiter Glo 2.0 assay kit (Promega, G9243), and growth inhibition rate was calculated and plotted against final compound concentration, and the data were fitted in Xfit to generate IC50.
# [1] = system: MDA-MB-436 (mutated BRCA1) cells; experiment: as above; assay type: cell-based; conditions: Homo sapiens, 168 h, MDA-MB-436, 7 days
# Text: as §1, §2
SMILES,pEC50 (DLD-1 BRCA2(−/−) cells),pEC50 [1]
CCc1cc2ncc(CN3C[C@H](n4ccc5nc(C#N)ccc54)[C@H]3C)cc2[nH]c1=O [Example 83],7.66,7.96
CCc1nc2ccc(CN3C[C@H](Oc4ccc(C(=O)NC5CC5)nc4)[C@H]3C)c(F)c2[nH]c1=O [Example 95],8.46,8.49
CCc1nc2ccc(CN3C[C@H](Oc4ccc(C(=O)NC5CC5)nc4F)[C@H]3C)c(F)c2[nH]c1=O [Example 101],8.27,8.51
CNC(=O)c1ccc(O[C@H]2CN(Cc3ccc4nc(C5CC5)c(=O)[nH]c4c3F)[C@@H]2C)cn1 [Example 97],7.47,7.68
CCNC(=O)c1ccc2c(ccn2[C@H]2CN(Cc3cnc4cc(CC)c(=O)[nH]c4c3)[C@@H]2C)n1 [Example 88],8.20,8.47
"[2H]C([2H])([2H])NC(=O)c1ccc(O[C@H]2CN(Cc3ccc4nc(CC)c(=O)[nH]c4c3F)[C@@H]2C)c(F)n1 [Example 110, 5-{[(2R,3S)-1-[(2-ethyl-5-fluoro-3-oxo-4H-quinoxalin-6-yl)methyl]-2-methylazetidin-3-yl]oxy}-6-fluoro-N-methyl-d3 pyridine-2-carboxamide]",7.85,8.03
"CCc1cc2ncc(CN3C[C@@H](Oc4ccc(C(=O)NC)nc4)[C@H]3C)cc2[nH]c1=O [Example 19, 5-{[(2R,3R)-1-[(7-ethyl-6-oxo-5H-1,5-naphthyridin-3-yl)methyl]-2-methylazetidin-3-yl]oxy}-N-methylpyridine-2-carboxamide]",< 6.00,< 6.00
"CCc1cc2ncc(CN3C[C@H](Oc4ccc(C(=O)NC)nc4)[C@@H](F)C3)cc2[nH]c1=O [Example 6, 5-(((3S,4S)-1-((7-ethyl-6-oxo-5,6-dihydro-1,5-naphthyridin-3-yl)methyl)-4-fluoropyrrolidin-3-yl)oxy)-N-methylpicolinamide]",7.14,7.38
"CCc1cc2ncc(CN3CC(C)(Oc4ccc(C(=O)NC)nc4)C3)cc2[nH]c1=O [Example 15, 5-({1-[(7-ethyl-6-oxo-5H-1,5-naphthyridin-3-yl)methyl]-3-methylazetidin-3-yl}oxy)-N-methylpyridine-2-carboxamide]",< 6.00,
Cc1cc2c(=O)[nH]c3c(F)c(CN4C[C@H](Oc5ccc(C(=O)NC6CC6)nc5)[C@H]4C)ccc3n2n1 [Example 114],8.23,8.44
C[C@@H]1[C@@H](Oc2ccc(C(=O)NCC(F)F)nc2)CN1Cc1ccc2c3c(c(=O)[nH]c2c1F)CCO3 [Example 120],7.68,8.06
Cc1cc2ncc(CN3C[C@H](Oc4ccc(C(=O)NC5CCC5)nc4)[C@H]3C)cc2[nH]c1=O [Example 85],8.74,8.89
CCc1cc2c(F)cc(CN3C[C@H](Oc4ccc(C(=O)NC)nc4)[C@H]3C)c(F)c2[nH]c1=O [Example 108],7.92,7.92
[2H]C([2H])(c1ccc2nc(CC)c(=O)[nH]c2c1F)N1C[C@H](Oc2ccc(C(=O)NC)nc2F)[C@H]1C [Example 111],7.82,7.89
C[C@@H]1[C@@H](Oc2ccc(C(=O)NC3CCC3)nc2)CN1Cc1cnc2cc(C(F)F)c(=O)[nH]c2c1 [Example 92],8.80,8.96
C[C@@H]1[C@@H](Oc2ccc(C(=O)NCC(F)F)nc2)CN1Cc1ccc2c([nH]c(=O)c3ccnn32)c1F [Example 119],8.17,8.36
"CCc1cc2ncc(CN3C[C@@H](Oc4ccc(C(=O)NC)nc4)[C@@H]3C)cc2[nH]c1=O [Example 18, 5-{[(2S,3R)-1-[(7-ethyl-6-oxo-5H-1,5-naphthyridin-3-yl)methyl]-2-methylazetidin-3-yl]oxy}-N-methylpyridine-2-carboxamide]",< 6.00,< 6.00
CCc1nc2ccc(CN3C[C@H](Oc4ccc(C(=O)NC)nc4F)[C@H]3C)c(F)c2[nH]c1=O [Example 100],7.96,8.23
CCc1cc2ncc(CN3C[C@H](Oc4ccc(C(=O)NC5CC5)nc4C#N)[C@H]3C)cc2[nH]c1=O [Example 79],8.20,8.72
"CNC(=O)c1ccc(O[C@H]2CN(Cc3ccc4c5c(c(=O)[nH]c4c3F)CCO5)[C@@H]2C)cn1 [Example 115, 5-{[(2R,3S)-1-({6-fluoro-4-oxo-2H,3H,5H-furo[3,2-c]quinolin-7-yl}methyl)-2-methylazetidin-3-yl]oxy}-N-methylpyridine-2-carboxamide]",6.77,6.77
CCNC(=O)c1ccc(O[C@H]2CN(Cc3cnc4cc(CC)c(=O)[nH]c4c3)[C@@H]2C)cn1 [Example 67],9.01,9.19

SMILES,pEC50 (DLD-1 BRCA2(−/−) cells),pEC50 [1]
CCc1nc2ccc(CN3C[C@H](Oc4ccc(C(=O)NC)nc4)[C@H]3C)c(F)c2[nH]c1=O [Example 93],8.14,8.30
CNC(=O)c1ccc2c(ccn2[C@H]2CN(Cc3ccc4nc(C)c(=O)[nH]c4c3F)[C@@H]2C)n1 [Example 96],< 6.00,< 6.00
CNC(=O)c1ccc2c(ccn2[C@H]2CN(Cc3ccc4[nH]c(=O)c(C5CC5)cc4n3)[C@@H]2C)n1 [Example 87],7.70,7.92
"CNC(=O)c1ccc(O[C@H]2CN(Cc3ccc4c([nH]c(=O)c5ccnn54)c3F)[C@@H]2C)cn1 [Example 113, 5-{[(2R,3S)-1-({6-fluoro-4-oxo-5H-pyrazolo[1,5-a]quinoxalin-7-yl}methyl)-2-methylazetidin-3-yl]oxy}-N-methylpyridine-2-carboxamide]",7.80,8.06
"CCc1cc2ncc(CN3C[C@@H](F)[C@H](Oc4ccc(C(=O)NC)nc4)C3)cc2[nH]c1=O [Example 5, 5-{[(3R,4R)-1-[(7-ethyl-6-oxo-5H-1,5-naphthyridin-3-yl)methyl]-4-fluoropyrrolidin-3-yl]oxy}-N-methylpyridine-2-carboxamide]",< 6.00,< 6.00
"CCc1cc2ncc(CN3C[C@H](F)[C@H](Oc4ccc(C(=O)NC)nc4)C3)cc2[nH]c1=O [Example 8, 5-{[(3R,4S)-1-[(7-ethyl-6-oxo-5H-1,5-naphthyridin-3-yl)methyl]-4-fluoropyrrolidin-3-yl]oxy}-N-methylpyridine-2-carboxamide]",< 6.00,
[2H]C([2H])(c1ccc2nc(CC)c(=O)[nH]c2c1F)N1C[C@H](Oc2ccc(C(=O)NC3CC3)nc2F)[C@H]1C [Example 112],8.33,8.59
C[C@@H]1[C@@H](Oc2ccc(C#N)nc2)CN1Cc1cnc2cc(Cl)c(=O)[nH]c2c1 [Example 78],7.49,7.46
Cc1nc2ccc(CN3C[C@H](Oc4ccc(C(=O)NC5CC5)nc4F)[C@H]3C)c(F)c2[nH]c1=O [Example 103],7.57,7.52
CCc1cc2ncc(CN3C[C@H](Oc4ccc(F)cc4C#N)[C@H]3C)cc2[nH]c1=O [Example 65],7.03,7.04
CNC(=O)c1ccc(O[C@H]2CN(Cc3ccc4nc(C)c(=O)[nH]c4c3F)[C@@H]2C)c(F)n1 [Example 98],7.21,7.54
CCc1cc2ccc(CN3CC(Oc4ccc(C(=O)NC5CC5)nc4)C3)c(F)c2[nH]c1=O [Example 118],7.62,7.66
C[C@@H]1[C@@H](Oc2ccc(C(=O)NC3CC3)nc2)CN1Cc1ccc2cc(Cl)c(=O)[nH]c2c1F [Example 99],8.40,8.77
"CCc1cc2ncc(CN3CC[C@H](Oc4ccc(C(=O)NC)nc4)C3)cc2[nH]c1=O [Example 1, 5-{[(3S)-1-[(7-ethyl-6-oxo-5H-1,5-naphthyridin-3-yl)methyl]pyrrolidin-3-yl]oxy}-N-methylpyridine-2-carboxamide]",< 6.00,< 6.00
"CCc1cc2ncc(CN3C[C@@H](F)[C@@H](Oc4ccc(C(=O)NC)nc4)C3)cc2[nH]c1=O [Example 9, 5-(((3S,4R)-1-((7-ethyl-6-oxo-5,6-dihydro-1,5-naphthyridin-3-yl)methyl)-4-fluoropyrrolidin-3-yl)oxy)-N-methylpicolinamide]",7.14,7.60
CCc1cc2ncc(CN3C[C@H](Oc4ccc(C(=O)NC5CC5)nc4F)[C@H]3C)cc2[nH]c1=O [Example 104],8.72,9.07
CNC(=O)c1ccc(O[C@H]2CN(Cc3cc(F)c4nc(C)c(=O)[nH]c4c3F)[C@@H]2C)cn1 [Example 102],7.31,6.96
Cc1cc2ncc(CN3C[C@H](Oc4ccc(C(=O)N[C@H]5C[C@@H](F)C5)nc4)[C@H]3C)cc2[nH]c1=O [Example 81],8.52,8.77
CCc1cc2ncc(CN3C[C@H](Oc4ccc(C#N)cc4F)[C@H]3C)cc2[nH]c1=O [Example 69],7.96,8.25
[2H]C([2H])(c1cnc2cc(CC)c(=O)[nH]c2c1)N1C[C@H](Oc2ccc(C(=O)NC3CC3)nc2)[C@H]1C [Example 71],9.05,9.31
CCc1cc2ncc(CN3C[C@H](n4ccc5nc(C(=O)NC6CC6)ccc54)[C@H]3C)cc2[nH]c1=O [Example 86],8.47,8.74
